# Measurements published in publication PMC11758220, “Identification of a Privileged Scaffold for Inhibition of Sterol Transport Proteins through the Synthesis and Ring Distortion of Diverse, Pseudo-Natural Products” (ACS Central Science, 2025).
# Assays:
# OSBP = molecular target: T1, OSBP (Homo sapiens, UniProt P22059); experiment: Fluorescence polarisation (FP) competition with NBD-cholesterol, OSBP; type: binding; conditions: single dose; for OSBP (FP) inhibition: Dose = 10 µM
# T1 construct: OSBP(377-807); host or cells: E. coli OverExpress C41
# T1 sequence (P22059 377-807): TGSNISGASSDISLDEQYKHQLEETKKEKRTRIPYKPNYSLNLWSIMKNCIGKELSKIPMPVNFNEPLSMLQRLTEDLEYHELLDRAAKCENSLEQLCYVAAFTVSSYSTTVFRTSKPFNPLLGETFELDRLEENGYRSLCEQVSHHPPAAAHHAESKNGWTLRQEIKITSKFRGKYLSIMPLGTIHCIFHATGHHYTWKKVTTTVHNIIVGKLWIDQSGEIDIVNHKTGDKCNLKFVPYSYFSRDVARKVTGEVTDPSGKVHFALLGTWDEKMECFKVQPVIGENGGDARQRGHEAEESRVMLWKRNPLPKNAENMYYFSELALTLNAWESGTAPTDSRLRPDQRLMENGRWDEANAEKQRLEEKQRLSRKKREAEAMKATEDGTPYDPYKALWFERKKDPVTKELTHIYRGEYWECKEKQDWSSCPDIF
# Source text: (§1) Protein expression constructs
# (§2) Human ASTER domains of Aster-A(359-547), -B(364-552) and -C(318-504) were subcloned into a pGEX-6p-2rbs vector, thus introducing the cloning artifact ‘GPLGS’.3 The pGEX-6P-1-GST-OSBP(377- […]
# (§3) a gift from James H. Hurley (University of California).4 The pHIS_2His6_Thrombin_STARD4(2-205;C75S) plasmid was a gift from Young Jun Im (Chonnam National University).5 STARD5A was a gift from Nicola Burgess-Brown (Addgene plasmid #42392; http://n2t.net/addgene:42392; […]
# (§4) Protein expression and purification […]
# (§5) vectors including an N-terminal PreScission-cleavable glutathione S-transferase (GST)-tag were expressed in Escherichia coli (E. coli) OverExpress C41 in Terrific Broth (TB) medium for 16 h at 18 °C after the induction with 0.1 mM isopropyl β-D-1-thiogalactopyranoside (IPTG). Cells were harvested at 3500 × g for 15 minutes and lysed by sonication in buffer containing 50 mM HEPES pH 7.5, 300 mM NaCl, 10 %v/v glycerol, 5 mM dithiothreitol (DTT), 0.1 %v/v Triton X-100 and protease inhibitor mix HP plus (Serva). The lysate was purified by affinity chromatography on a GSTrap FF column (Cytiva) using an ÄKTA Start (Cytiva) in buffer containing 50 mM HEPES pH 7.5, 300 mM NaCl, 10 %v/v glycerol, 5 mM DTT and 0.01 %v/v Triton X-100. The GST-tag was cleaved overnight on the column at 4 °C. The Aster sterol binding domains were further purified by size-exclusion chromatography (SEC) on a HiLoad 16/600 Superdex 75 pg (Cytiva) in buffer containing 20 mM HEPES pH 7.5, 300 mM NaCl, 10 %v/v […]
# (§6) STARD5(6-213) harboring an N-terminal His6-Tag were expressed in E. coli BL21(DE3) in Luria-Bertani Broth (LB) medium for approximately 16 h at 18 °C after induction with 0.15 mM IPTG. Cells were harvested at 3500 × g for 15 minutes and lysed by sonication in buffer containing 50 mM HEPES pH 7.5, 150 mM NaCl, 5 %v/v glycerol, 5 mM DTT, 0.1 %v/v Triton X -100 and ethylenediaminetetraacetic acid (EDTA)-free protease inhibitor cocktail (Sigma-Aldrich). The cleared lysate was purified by affinity chromatography on a Ni-NTA Superflow Cartridge (Qiagen) using an ÄKTA Start (Cytiva) in buffer containing 50 mM HEPES pH 7.5, 150 mM NaCl, 5 %v/v glycerol, 5 mM DTT. START domains were eluted by using elution buffer containing 50 mM HEPES pH 7.5, 150 mM NaCl, 5 %v/v glycerol, 5 mM DTT and 500 mM imidazole. Proteins were further purified by SEC on a HiLoad 16/600 Superdex 75 pg (Cytiva) in buffer containing 20 mM HEPES pH 7.5, 150 mM NaCl, 5 %v/v glycerol and 2 mM DTT.
# (§7) The ORP domain of human OSBP(377-807) in the pGEX-6p-1 vector with an N-terminal PreScission-cleavable GST-tag was expressed in E. coli OverExpress C41 in LB medium for 16 h at 18 °C after induction with 0.1 mM IPTG. Cells were harvested at 3500 × g for 15 minutes and lysed by sonication in buffer containing 20 mM HEPES pH 7.5, 300 mM NaCl, 10 %v/v glycerol, 5 mM DTT, 0.1 %v/v Triton X-100 and EDTA-free protease inhibitor cocktail (Sigma-Aldrich). The cleared lysate was purified by affinity chromatography on a GSTrap HF column (Cytiva) using an ÄKTA Start (Cytiva) in buffer containing 20 mM HEPES pH 7.5, 300 mM NaCl, 10 %v/v glycerol, 5 mM DTT. OSBP(377 -807) was eluted by using elution buffer containing 20 mM HEPES pH 7.5, 300 mM NaCl, 10 %v/v glycerol, 5 mM DTT and 10 mM reduced glutathione. Proteins were further purified by SEC on a HiLoad 16/600 Superdex 75 pg (Cytiva) using an ÄKTA Explorer (Cytiva) in buffer containing 20 mM HEPES pH 7.5, 150 mM NaCl, 10 %v/v glycerol and 2 mM DTT.
# (§8) The ORP domains of human ORP1(534-950) in pET24b(+) and ORP2(49-480) in the pET24b(+) vector including an N-terminal His6-Tag were expressed in E. coli BL21(DE3) in TB medium for approximately 16 h at 18 °C after induction with 0.1 mM IPTG. Cells were collected at 3500 × g for 15 minutes and lysed by sonification in buffer containing 10 mM Tris-HCl pH 8, 300 mM NaCl, 5 % glycerol, 2 mM DTT, 0.1 % Triton X-100 and EDTA-free protease inhibitor cocktail (Sigma-Aldrich). The cleared […]
# STARD4 = molecular target: T2, STARD4 (Homo sapiens, UniProt Q96DR4, C75S); experiment: Differential scanning fluorimetry (DSF), STARD4; type: binding; conditions: for ΔTm at 10 µM / STARD4 (DSF) ΔTm: single dose, Dose = 10 µM; for Kd: apparent Kd, mean of three experiments run in technical duplicates, read-out: STARD4 Kd,app (DSF); for STARD4 (DSF) ΔTmmax: maximal thermal shift
# T2 construct: STARD4(2-205; C75S); made in house; host or cells: E. coli BL21(DE3)
# T2 sequence (Q96DR4 2-205 C75S): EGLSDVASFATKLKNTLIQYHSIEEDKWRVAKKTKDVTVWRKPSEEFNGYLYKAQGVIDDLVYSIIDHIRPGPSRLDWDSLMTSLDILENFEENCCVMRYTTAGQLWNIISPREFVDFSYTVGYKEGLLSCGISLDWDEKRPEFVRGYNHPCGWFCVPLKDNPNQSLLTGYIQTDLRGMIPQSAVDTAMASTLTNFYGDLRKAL
# Source text: as §1, §2, §3, §4, §5, §6, §7, §8
Compound,inhibition at 10 µM (OSBP),ΔTm at 10 µM (STARD4),Kd (STARD4),STARD4 (DSF) ΔTmmax (STARD4),STARD4 (DSF) ΔTm (STARD4),OSBP (FP) inhibition (OSBP)
C[C@]12CC[C@@H]3C[C@H]1CC[C@@]21C(=Nc2ccc(Br)cc21)O3 (racemic) [Compound 15b],7%,1.5 °C,–,–,–,–
CC12CCC3CC1CCC21C(=Nc2ccc(N4CCOCC4)cc21)O3 (racemic) [Compound 19a],3%,0.851 °C,> 30 µM,1.1 °C,–,–
"CC12CCC3CC1CCC21C(=Nc2ccc(Br)cc21)O3 (single isomer, unassigned; (+)) [(+)-15b]",13.1%,0.0899 °C,7.89 µM,1.4 °C,–,–
"CC12CCC3CC1CCC21C(=Nc2ccc(N4CCOCC4)cc21)O3 (single isomer, unassigned; (+)) [(+)-19a]",3.4%,–,> 50 µM,1.1 °C,0.4 °C,–
"CC12CCC3CC1CCC21C(=Nc2ccc(N4CCOCC4)cc21)O3 (single isomer, unassigned; (-)) [(−)-19a]",–,–,> 30 µM,1.3 °C,1.3 °C,6.2%
C[C@@]12CC[C@H]3C[C@@H]1CC[C@]21C(=Nc2ccc(Br)cc21)O3 [(−)-15b],2.8%,0.324 °C,6.04 µM,3.6 °C,–,–
"CC(C)Oc1ccc(C(=O)Nc2nc3c(s2)CN(C(=O)OC(C)(C)C)CC3)cc1 [Autogramin-2, reference compound]",–,–,> 30 µM,–,0.2 °C,9.0%
Cc1c2c(nc3ccccc13)[C@@]1(C)CC[C@@H](O)C[C@H]1CC2 [Compound 2a],10%,-0.141 °C,–,–,–,–
C[C@]12CC[C@@H](O)C[C@H]1CCc1c2nc2ccccc2c1-c1ccccc1 [Compound 2b],–,–,–,–,-0.0888 °C,-12.0%
Cc1c2c(nc3cc(Br)ccc13)[C@@]1(C)CC[C@@H](O)C[C@H]1CC2 [Compound 2c],–,–,–,–,0.0489 °C,-4.0%
C[C@]12CC[C@@H](O)C[C@H]1CCc1c2nc2ccccc2c1-c1ccc(F)cc1 [Compound 2d],0%,-0.177 °C,–,–,–,–
C[C@]12CC[C@@H](O)C[C@H]1CCc1c2nc2ccc(Cl)cc2c1-c1ccccc1 [Compound 2e],–,–,–,–,-0.00387 °C,10.6%
C[C@]12CC[C@@H](O)C[C@H]1CCc1c2[nH]c2ncccc12 [Compound 3],2.5%,-0.021 °C,–,–,–,–
C[C@]12CC[C@@H](O)C[C@H]1CCC[C@]21Nc2ccccc2-n2cccc21 [Compound 4],21%,0.6 °C,–,–,0.7 °C,10.0%
C[C@]12CC[C@@H](O)C[C@H]1CCC[C@]21NC(=O)c2ccccc2N1 [Compound 5a],9.1%,-0.124 °C,–,–,-0.0769 °C,15.5%
C[C@]12CC[C@@H](O)C[C@H]1CCC[C@]21NC(=O)c2ccc(F)cc2N1 [Compound 5b],8.2%,-0.0901 °C,–,–,0.027 °C,24.6%
COc1ccc2c(c1)C(=O)N[C@]1(CCC[C@@H]3C[C@H](O)CC[C@@]31C)N2 [Compound 5c],18.2%,-0.0676 °C,–,–,-0.0518 °C,6.4%
C[C@]12CC[C@@H](O)C[C@H]1CCc1nc3ccccc3nc12 [Compound 7a],4%,0.0574 °C,–,–,–,–
Cc1cc2nc3c(nc2cc1C)[C@@]1(C)CC[C@@H](O)C[C@H]1CC3 [Compound 7b],24%,0.27 °C,–,–,–,–
C[C@]12CC[C@@H](O)C[C@H]1CCc1nc3cc(F)c(F)cc3nc12 [Compound 7c],–,–,–,–,0.0575 °C,8.0%
C[C@]12CC[C@@H](O)C[C@H]1CCc1nc3cc(Cl)c(Cl)cc3nc12 [Compound 7d],–,–,–,–,-0.111 °C,-1.0%
C[C@]12CC[C@@H](O)C[C@H]1CCc1nc3cc(Br)c(Br)cc3nc12 [Compound 7e],–,–,–,–,0.0567 °C,3.0%
C[C@]12CC[C@@H](O)C[C@H]1CCc1sc(N)nc12 [Compound 8a],18.6%,-0.00456 °C,–,–,–,–
Cc1nc2c(s1)CC[C@@H]1C[C@H](O)CC[C@]21C [Compound 8b],–,–,–,–,0.0902 °C,-1.3%
C[C@]12CC[C@@H](O)C[C@H]1CCc1sc(-c3cccnc3)nc12 [Compound 8c],–,–,–,–,0.173 °C,17.3%
COc1ccc(-c2nc3c(s2)CC[C@@H]2C[C@H](O)CC[C@]32C)cc1 [Compound 8d],2.6%,0.3 °C,–,–,–,–
C[C@]12CC[C@@H](O)C[C@H]1CCc1sc(-c3ccc(F)cc3)nc12 [Compound 8e],–,–,–,–,0.7 °C,1.3%
C[C@]12CC[C@@H](O)C[C@H]1CCc1[nH]c(-c3ccccc3)nc12 [Compound 9],5%,-0.0502 °C,–,–,–,–
C[C@]12CC[C@@H](O)C[C@H]1CCc1c2[nH]c2ccccc12 [Compound 10a],–,–,–,–,0.0293 °C,1.3%
C[C@]12CC[C@@H](O)C[C@H]1CCc1c2[nH]c2ccc(Br)cc12 [Compound 10b],–,–,–,–,0.2 °C,-12.0%
